Test results reported in patent US11964988B2, “Fused heterocyclic compounds as RET kinase inhibitors” (ARRAY BIOPHARMA INC., priority 2018, dated 2024).
Residue numbers refer to the chain shown, from its start. Like-named read-outs stand apart in the source and are kept apart here.

Columns and labels:
G810R mutant RET kinase [1] = target: T1, G810R mutant RET kinase (Homo sapiens, UniProt P07949, G810R);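 also: HTRF KinEASE-TK enzymatic assay with 1 nM recombinant RET G810R, 1 h at 22 °C, dual-wavelength ratiometric readout, 100% control without compound, 0% from pre-quenched reactions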
T1 sequence (P07949 29-1114 G810R): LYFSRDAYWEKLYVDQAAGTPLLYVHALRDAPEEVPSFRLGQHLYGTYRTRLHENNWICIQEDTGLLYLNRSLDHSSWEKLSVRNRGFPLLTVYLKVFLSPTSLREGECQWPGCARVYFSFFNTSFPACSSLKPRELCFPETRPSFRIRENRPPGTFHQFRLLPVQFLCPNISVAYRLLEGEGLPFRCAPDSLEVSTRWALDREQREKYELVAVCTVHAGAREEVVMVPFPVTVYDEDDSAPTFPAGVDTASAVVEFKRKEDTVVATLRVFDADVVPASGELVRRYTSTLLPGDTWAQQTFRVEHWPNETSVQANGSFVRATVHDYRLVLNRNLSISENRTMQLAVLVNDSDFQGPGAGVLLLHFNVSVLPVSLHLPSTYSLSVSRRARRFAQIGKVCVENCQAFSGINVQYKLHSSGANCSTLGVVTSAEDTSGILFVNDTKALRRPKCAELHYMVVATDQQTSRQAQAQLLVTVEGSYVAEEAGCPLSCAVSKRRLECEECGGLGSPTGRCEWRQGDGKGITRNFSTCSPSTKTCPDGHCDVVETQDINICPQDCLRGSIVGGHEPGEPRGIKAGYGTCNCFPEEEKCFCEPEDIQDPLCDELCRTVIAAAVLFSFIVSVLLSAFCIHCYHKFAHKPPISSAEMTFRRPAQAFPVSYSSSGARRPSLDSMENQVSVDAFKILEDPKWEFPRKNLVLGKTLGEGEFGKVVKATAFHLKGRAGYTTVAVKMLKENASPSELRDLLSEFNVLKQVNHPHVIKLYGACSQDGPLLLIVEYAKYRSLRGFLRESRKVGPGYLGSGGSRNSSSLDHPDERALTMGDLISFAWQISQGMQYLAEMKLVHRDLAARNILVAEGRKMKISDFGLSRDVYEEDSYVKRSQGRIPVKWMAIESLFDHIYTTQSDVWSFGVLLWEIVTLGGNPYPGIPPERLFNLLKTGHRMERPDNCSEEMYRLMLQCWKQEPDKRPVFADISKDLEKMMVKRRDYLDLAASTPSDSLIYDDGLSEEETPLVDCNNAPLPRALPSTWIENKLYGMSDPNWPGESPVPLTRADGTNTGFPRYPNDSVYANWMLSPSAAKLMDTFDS
Protocol: (§2) The potency of compounds inhibiting several different RET kinase forms (Wild Type, V804M, G810R, & G810S) were determined using CisBio's HTRF® KinEASE™-TK assay technology. […] After a 1 hour incubation at 22° C., the extent of reaction was determined using a PerkinElmer EnVision multimode plate reader via HTRF dual wavelength detection, and the percent of control (POC) was calculated using a ratiometric emission factor. One hundred POC was determined using DMSO only samples (no compound present), and 0 POC was determined using pre-quenched control reactions.
(§3) The potency of a compound inhibiting G810R or G810S mutant RET kinase was determined using CisBio's HTRF® KinEASE™-TK assay technology. The assays contained G810R or G810S mutant RET produced at Array Biopharma, Inc. (1 nM enzyme). […] After a 1-h incubation at 22° C., the extent of reaction was determined using a PerkinElmer EnVision multimode plate reader via HTRF dual wavelength detection, and the percent of control (POC) was calculated using a ratiometric emission factor. One hundred POC was determined using no test compounds, and 0 POC was determined using pre-quenched control reactions.

[2] = target: T2, HEK-293 cells expressing a Kif5b-RET fusion protein (Homo sapiens, UniProt P07949); experiment: RET Cell Assay (phospho-RET Tyr1062); assay type: cell-based; conditions: HEK-293 Kif5b-RET, 1 hour incubation, phospho-RET normalized to GAPDH; read-out: KIF5B-RET pTYR1062 Cell IC50
T2 construct: KIF5B (N-terminal portion incl. coiled-coil); expressed in transfected cells; host or cells: HEK-293; the other entry of the earlier key: KIF5B (P33176, Kinesin-1 heavy chain)
T2 sequence (P07949 713-1063 limits assumed): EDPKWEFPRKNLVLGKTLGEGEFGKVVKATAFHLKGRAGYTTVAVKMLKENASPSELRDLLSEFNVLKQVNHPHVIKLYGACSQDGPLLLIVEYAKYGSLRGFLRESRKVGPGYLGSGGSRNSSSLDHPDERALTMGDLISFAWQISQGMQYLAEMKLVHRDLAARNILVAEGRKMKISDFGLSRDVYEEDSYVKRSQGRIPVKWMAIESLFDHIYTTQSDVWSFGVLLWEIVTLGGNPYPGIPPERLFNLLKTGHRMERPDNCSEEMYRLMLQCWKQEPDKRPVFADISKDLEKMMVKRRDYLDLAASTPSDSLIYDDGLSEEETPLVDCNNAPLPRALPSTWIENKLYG
Method in brief: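 Phospho-RET (Tyr1062) to GAPDH ratio read by in-cell fluorescent immunodetection after 1 hour compound exposure in DMEM, 0.5% DMSO. Cells: HEK-293 carrying Kif5b-RET fusion. POC data fit to a 4-parameter logistic curve, IC50 taken at 50 POC.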

G810S mutant RET kinase [3] = target: T3, G810S mutant RET kinase (Homo sapiens, UniProt P07949, G810S);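 also: HTRF KinEASE-TK kinase assay with recombinant enzyme, 1 h at 22 °C, dual-wavelength ratiometric read-out, percent of control (DMSO-only = 100, pre-quenched reaction = 0)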
T3 sequence (P07949 29-1114 G810S): as the sequence (P07949 29-1114 G810R) above, with R782S counted along it
Protocol: as §2, §3

RET kinase V804M = RET kinase V804M (Homo sapiens, UniProt P07949, V804M); experiment: RET Enzyme Assay (CisBio HTRF KinEASE-TK), V804M; assay type: biochemical; conditions: read-out: RET V804M Enz FRET IC50
RET kinase V804M, sequence (P07949 29-1114 V804M): as the sequence (P07949 29-1114 G810R) above, with V776M, R782G counted along it

[4] = target: T4, HEK-293 cells expressing a G810R mutant RET Kif5b-RET fusion protein (Homo sapiens, UniProt P07949, G810R); experiment: RET G810R Mutant Cell Assay (phospho-RET Tyr1062); assay type: cell-based; conditions: HEK-293 Kif5b-RET G810R, 1 hour incubation, phospho-RET normalized to GAPDH
T4 construct: KIF5B (N-terminal portion incl. coiled-coil); expressed in transfected cells; host or cells: HEK-293; the other entry of the earlier key: KIF5B (P33176, Kinesin-1 heavy chain)
T4 sequence (P07949 713-1063 G810R limits assumed): T2 sequence (P07949 713-1063 limits assumed) with G98R
Method in brief: (§1)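 Signals came from in-cell immunostaining of fixed, methanol-permeabilized HEK-293 fusion-expressing cells exposed 1 h to compound in DMEM with 0.5% DMSO.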

RET kinase Wild Type [5] = target: T5, RET kinase Wild Type (Homo sapiens, UniProt P07949);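 also: HTRF kinase activity assay on RET enzyme, 1 h reaction at 22 °C, dual-wavelength readout as percent of control, DMSO-only wells as 100%, pre-quenched reactions as 0%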
T5 sequence (P07949 29-1114): as the sequence (P07949 29-1114 G810R) above, with R782G counted along it
Protocol: as §2

G810R mutant RET kinase [6] = target: T1, G810R mutant RET kinase; experiment: biochemical
Protocol: as §2, §3

G810S mutant RET kinase [7] = target: T3, G810S mutant RET kinase; experiment: biochemical
Protocol: as §2, §3

RET kinase Wild Type [8] = target: T5, RET kinase Wild Type; experiment: biochemical
Protocol: as §2

[9] = target: T6, HEK-293 cells expressing a G810S mutant RET Kif5b-RET fusion protein (Homo sapiens, UniProt P07949, G810S); experiment: RET G810S Mutant Cell Assay (phospho-RET Tyr1062); assay type: cell-based; conditions: HEK-293 Kif5b-RET G810S, 1 hour incubation, phospho-RET normalized to GAPDH
T6 construct: KIF5B (N-terminal portion incl. coiled-coil); expressed in transfected cells; host or cells: HEK-293
T6 sequence (P07949 713-1063 G810S limits assumed): T2 sequence (P07949 713-1063 limits assumed) with G98S
Method in brief: as §1

[10] = V804M RET, 1 mM ATP, averaged IC50

SMILES | IC50 (G810R mutant RET kinase [1]) [nM] | IC50 [2] [nM] | IC50 (G810S mutant RET kinase [3]) [nM] | IC50 (RET kinase V804M; [10]) [nM] | IC50 [4] [nM] | IC50 (RET kinase Wild Type [5]) [nM] | IC50 (RET kinase V804M) [nM] | IC50 (G810R mutant RET kinase [6]) [nM] | IC50 (G810S mutant RET kinase [7]) [nM] | IC50 (RET kinase Wild Type [8]) [nM] | IC50 [9] [nM]
C[C@H](n1c2c(c3c(N)ncnc31)-c1noc(C3CC3)c1[C@H](O)CC2)C(F)(F)F (single isomer, unassigned) [Example 145] | 85 | 73 | 101 | 31 | 120 | 20 |  |  |  |  | 
CC(n1c2c(c3c(N)ncnc31)-c1noc(C3CC3)c1C(O)CC2)C(F)(F)F (stereo not drawn) [Example 131, 11-Amino-3-cyclopropyl-7-(1,1,1-trifluoropropan-2-yl)-4,5,6,7-tetrahydroisoxazolo[4″,3″:6′,7′]cyclohepta[1′,2′:4,5]pyrrolo[2,3-d]pyrimidin-4-ol] |  | 14 |  |  | 30 |  | 41 | 97 | 18 | 14 | 60
Nc1ncnc2c1c1c(n2C2CCNC2)CCC(O)c2c-1noc2C1CC1 (stereo not drawn) [Example 132, (Cis)-11-amino-3-cyclopropyl-7-(pyrrolidin-3-yl)-4,5,6,7-tetrahydroisoxazolo[4″,3″:6′,7]cyclohepta[1′,2′:4,5]pyrrolo[2,3-d]pyrimidin-4-ol 2,2,2-trifluoroacetate] | 4460 |  | 2320 | 1940 |  | 1710 |  |  |  |  | 
Nc1ncnc2c1c1c(n2C2CCNC2)CCC(O)c2c-1noc2C1CC1 (stereo not drawn) [Example 133, (Trans)-11-amino-3-cyclopropyl-7-(pyrrolidin-3-yl)-4,5,6,7-tetrahydroisoxazolo[4″,3″:6′,7′]cyclohepta[1′,2′:4,5]pyrrolo[2,3-d]pyrimidin-4-ol 2,2,2-trifluoroacetate] | 6140 |  | 3400 | 6200 |  | 2640 |  |  |  |  | 
COC(=O)[C@H]1C[C@H](n2c3c(c4c(N)ncnc42)-c2noc(C4CC4)c2C(=O)CC3)C1 [Example 142, Methyl (1r,3r)-3-(11-amino-3-cyclopropyl-4-oxo-5,6-dihydroisoxazolo[4″,3″:6′,7′]cyclohepta[1′,2′:4,5]pyrrolo[2,3-d]pyrimidin-7(4H)-yl)cyclobutane-1-carboxylate] | 157 |  | 425 | 505 |  | 124 |  |  |  |  | 
CC1(n2c3c(c4c(N)ncnc42)-c2noc(C4CC4)c2[C@H](O)CC3)CC1 [Example 150, (R)-11-Amino-3-cyclopropyl-7-(1-methylcyclopropyl)-4,5,6,7-tetrahydroisoxazolo[4″,3″:6′,7′]cyclohepta[1′,2′:4,5]pyrrolo[2,3-d]pyrimidin-4-ol] |  | 4 |  |  | 40 |  | 15 | 84 | 46 | 12 | 18
CO[C@@H]1CCc2c(c3c(N)ncnc3n2C2(C)CC2)-c2noc(C3CC3)c21 [Example 151, (R)-3-Cyclopropyl-4-methoxy-7-(1-methylcyclopropyl)-4,5,6,7-tetrahydroisoxazolo[4″,3″:6′,7]cyclohepta[1′,2′:4,5]pyrrolo[2,3-d]pyrimidin-11-amine] |  | 14 |  |  | 113 |  | 27 | 86 | 55 | 9 | 57
